This passage reports MIC results from patent US5215983A, “Carbapenem compounds” (Fujisawa Pharmaceutical Co., Ltd., priority 1989, dated 1993).

This test relates to P. aeruginosa 2. Put plainly: in vitro Antimicrobial Activity (two-fold agar-plate dilution method). It counts as cell-based. As to conditions: Pseudomonas aeruginosa, 10^6 viable cells per ml, heart infusion agar, 37° C. for 20 hours, read-out: MIC (minimal inhibitory concentration). Here is the method: in vitro Antimicrobial Activity was determined by the two-fold agar-plate dilution method as described blow.
One loopful of an overnight culture of a test strain in Trypticase-soy broth (10^6 viable cells per ml) was streaked on heart infusion agar (HI-agar) containing graded concentrations of the test compound, and the minimal inhibitory concentration (MIC) was expressed in terms of μg/ml after incubation at 37° C. for 20 hours.

Molecules are shown by their SMILES.

With `C[C@@H](O)[C@H]1C(=O)N2C(C(=O)O)=C(S[C@@H]3CN[C@H](CN4CCCn5c4cc[n+]5C)C3)[C@H](C)[C@H]12` [Example 1-3, (4R,5S,6S)-6-[(1R)-1-hydroxyethyl]-4-methyl-3-[(2S,4S)-2-{1-methyl-4,5,6,7-tetrahydro-4-pyrazolo[1,5-a]pyrimidinio}methylpyrrolidin-4-yl]thio-7-oxo-1-azabicyclo[3.2.0]-hept-2-ene-2-carboxylic acid chloride], the MIC amounted to 0.39 µg/mL.
